Biological target: T1, M1 (h) (antagonist radioligand) (Homo sapiens, UniProt P11229)
T1 construct: CEREP (Eurofins, France), contract panel
T1 sequence (P11229 1-460): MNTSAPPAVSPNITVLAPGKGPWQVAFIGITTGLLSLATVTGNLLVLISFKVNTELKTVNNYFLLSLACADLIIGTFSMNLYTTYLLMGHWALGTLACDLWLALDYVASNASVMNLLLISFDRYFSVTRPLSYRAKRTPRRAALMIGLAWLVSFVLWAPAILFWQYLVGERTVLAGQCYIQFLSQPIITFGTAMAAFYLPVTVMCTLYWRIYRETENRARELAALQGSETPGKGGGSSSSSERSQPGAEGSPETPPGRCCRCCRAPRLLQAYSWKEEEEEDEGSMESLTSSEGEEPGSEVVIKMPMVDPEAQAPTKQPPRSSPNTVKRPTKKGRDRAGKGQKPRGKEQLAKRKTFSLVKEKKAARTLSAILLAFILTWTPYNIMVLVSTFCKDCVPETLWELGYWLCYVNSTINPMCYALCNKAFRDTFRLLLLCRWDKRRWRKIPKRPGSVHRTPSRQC
Assay: Radioligand binding panel (Eurofins/CEREP), M1
Conditions: 10^−5 M; % inhibition of control specific binding; read-out: % Inhibition at 10^−5M Benedin
Method: Benedin was tested at 10^−5 M, calculated as a % inhibition of control specific binding of a radioactively labeled ligand specific for each target.
This binding profile panel was broadly defined with roughly an equal number of selective, central and peripheral therapeutically relevant targets, including native animal tissues, radioligands and specific enzymes involved in cell cycle regulation in accordance with Eurofins Standard Operating Procedure.
For radioligand binding experiments, the half maximal inhibitory concentration (IC50) and the half maximal effective concentration (EC50) values were determined (via computer software) by nonlinear regression analysis of the competition curves using Hill equation curve fitting. The inhibition constants (Ki) were calculated using the Cheng-Prusoff equation (Ki=IC50/(1+(L/KD)), where L is the concentration of radioligand in the assay, and KD is the affinity of the radioligand for the receptor.^60
The results are expressed as a % control specific binding ([measured specific binding/control specific binding]×100) and as a % inhibition of control specific binding (100−[(measured specific binding/control specific binding)×100] obtained in the presence of the test compounds. […]

Structure (SMILES): CN1CCCC(O)C1C(c1ccccc1)c1ccccc1 (stereo not shown) [Benedin, 2-benzhydryl-3-hydroxy-N-methyl-piperidine]
- inhibition at 10 µM: 75%

— US20240316023A1, “BENEDIN, PIPERIDINE, 2-BENZHYDRYL-3-HYDROXY-N-METHYL-, HYDROCHLORIDE AND DERIVATIVES THEREOF FOR USE IN TREATING KLEINE-LEVIN SYNDROME” (priority 2021, published 2024)
